Measurements taken from BindingDB's records for doi:10.1021/jm401056w (Takeda Pharmaceutical, 2013).

Test: Inhibition of human KISS1R expressed in CHO cells assessed as inhibition of KISS1R-mediated cell growth after 3 days by cell counting kit-8 assay

Row | SMILES | IC50 [µM]
1 | CNC(N)=NCCC[C@H](NC(=O)[C@H](CC(C)C)NC(=O)CNC(=O)[C@H](Cc1ccccc1)NC(=O)[C@H](CO)NC(=O)[C@H](CC(N)=O)NC(=O)[C@H](Cc1c[nH]c2ccccc12)NC(=O)[C@H](CC(N)=O)NC(=O)[C@H](N)Cc1ccc(O)cc1)C(=O)N[C@@H](Cc1ccccc1)C(N)=O | 0.087
2 | CC(C)C[C@H](NC(=O)CNC(=O)[C@H](Cc1ccccc1)NC(=O)[C@H](CO)NC(=O)[C@H](CC(N)=O)NC(=O)[C@H](Cc1c[nH]c2ccccc12)NC(=O)[C@H](CC(N)=O)NC(=O)[C@@H](N)Cc1ccc(O)cc1)C(=O)N[C@@H](CCCN=C(N)N)C(=O)N[C@@H](Cc1ccccc1)C(N)=O [(2S)-2-[(2S)-2-[(2S)-2-[(2S)-2-amino-3-(4-hydroxyphenyl)propanamido]butanediamido]-3-(1H-indol-3-yl)propanamido]-N-[(1S)-1-{[(1S)-1-[({[(1S)-1-{[(1S)-4-carbamimidamido-1-{[(1S)-1-carbamoyl-2-phenylethyl]carbamoyl}butyl]carbamoyl}-3-methylbutyl]carbamoyl}methyl)carbamoyl]-2-phenylethyl]carbamoyl}-2-hydroxyethyl]butanediamide] | 8.51
